Assay results from ChEMBL document CHEMBL1201862, “PubChem BioAssay data set” (2004).
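Results reflect a 48-hour exposure of cells in 96-well plates to compound at five concentrations. GI50 = concentration required for 50% inhibition of growth.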 Active and inactive are the calls of the source. Cut-off read from the data, not from the text of the source: active = GI50 up to about 1.1 µM and inactive = higher.

What was measured:
Experiment in all cases: NCI anticancer screen, dose series, 48 h
786-0 = test system: 786-0
A549 = test system: A549
CCRF-CEM = test system: CCRF-CEM
EKVX = test system: EKVX
HL-60 = test system: HL-60
K562 = test system: K562
MDA-MB-231 = test system: MDA-MB-231
MDA-MB-435 = test system: MDA-MB-435
MDA-N = test system: MDA-N
NCI-H460 = test system: NCI-H460
NCI/ADR-RES = test system: NCI/ADR-RES
OVCAR-3 = test system: OVCAR-3
OVCAR-5 = test system: OVCAR-5
RXF 393 = test system: RXF 393
SK-MEL-28 = test system: SK-MEL-28
SNB-75 = test system: SNB-75
SR = test system: SR
UACC-62 = test system: UACC-62
UO-31 = test system: UO-31
SF-268 = test system: SF-268

Measured: GI50

CCOc1cccc(/C=N/N=C2\C(=O)Nc3c(Cl)cc(Cl)cc32)c1O
inactive: 786-0 74.6 µM | A549 > 100 µM | CCRF-CEM 31.6 µM | EKVX 5.97 µM | HL-60 33.4 µM | K562 41.1 µM | MDA-MB-231 37.2 µM | MDA-MB-435 44.8 µM | MDA-N 45.7 µM | NCI-H460 37 µM | NCI/ADR-RES 33.3 µM | OVCAR-3 36.9 µM | OVCAR-5 > 100 µM | RXF 393 > 100 µM | SK-MEL-28 71.8 µM | SNB-75 40.9 µM | SR 29.4 µM | UACC-62 58.2 µM | UO-31 34 µM

O=C(CN1CCOCC1)CC(O)(C(F)(F)F)C(F)(F)F
inactive: 786-0 > 100 µM | A549 > 100 µM | CCRF-CEM 56.4 µM | EKVX > 100 µM | HL-60 61.7 µM | K562 55.1 µM | MDA-MB-231 > 100 µM | MDA-MB-435 > 100 µM | MDA-N > 100 µM | NCI/ADR-RES > 100 µM | OVCAR-3 35.9 µM | OVCAR-5 > 100 µM | RXF 393 20.1 µM | SK-MEL-28 > 100 µM | SNB-75 38.6 µM | SR 79.4 µM | UACC-62 44.6 µM | UO-31 51.3 µM

CCOC(=O)C(NC(=O)c1cccc(Cl)c1)(Nc1cccc(C)c1)C(F)(F)F (centres undefined)
inactive: 786-0 23.3 µM | A549 32 µM | CCRF-CEM 11.6 µM | EKVX 18.7 µM | HL-60 38.5 µM | K562 23.6 µM | MDA-MB-231 19.4 µM | MDA-MB-435 19.6 µM | MDA-N 17.5 µM | NCI-H460 20.8 µM | NCI/ADR-RES 15.9 µM | RXF 393 13 µM | SF-268 15.3 µM | SK-MEL-28 17.4 µM | SNB-75 12.4 µM | SR 28.7 µM | UACC-62 14.5 µM | UO-31 15.1 µM

CS(=O)(=O)O[C@H]1[C@H](O)c2ccccc2[C@@H]1N=[N+]=[N-]
inactive: 786-0 > 100 µM | A549 > 100 µM | CCRF-CEM > 100 µM | EKVX > 100 µM | HL-60 > 100 µM | K562 > 100 µM | MDA-MB-231 > 100 µM | MDA-MB-435 > 100 µM | MDA-N > 100 µM | NCI-H460 > 100 µM | NCI/ADR-RES > 100 µM | OVCAR-3 > 100 µM | OVCAR-5 > 100 µM | RXF 393 > 100 µM | SK-MEL-28 > 100 µM | SNB-75 21.4 µM | SR > 100 µM | UACC-62 > 100 µM | UO-31 > 100 µM
